The values below come from US5375693A (Sepracor, Inc., priority 1994, dated 1994).

The structures appear in SMILES notation.

The test system of series [1] is histamine induced lethality. The following applies: guinea pig; cited from earlier work.
For series [2] the following is noted: in vivo; cited from earlier work.
Series [3] deals with allergic rhinitis. Particulars: compared with chlorpheniramine; cited from earlier work.
The subject of series [4] is airway resistance caused by LTD4 (leukotriene D4). Particulars: guinea pigs; cited from earlier work.
The conditions of series [5]: cited from earlier work.
For series [6], the target named is histamine H1 -receptor (Bos taurus, UniProt P30546). The series is described as follows: biochemical. Particulars: pH 7.5, read-out: Percent Inhibition. As to the method: 32:1653-1663 (1979). Briefly, membranes from bovine cerebellum were incubated with [^3 H]pyrilamine and varying concentrations of test compound. The reactions were carried out in 50 mM sodium phosphate buffer (pH 7.5) at 25° C. for 30 minutes. The reaction was terminated by rapid vacuum filtration onto glass fiber filters. Radioactivity trapped on the filters was determined and compared to control values to acertain the interaction of the test compound with the H1 -receptor.
Sequence of histamine H1 -receptor (P30546 whole entry): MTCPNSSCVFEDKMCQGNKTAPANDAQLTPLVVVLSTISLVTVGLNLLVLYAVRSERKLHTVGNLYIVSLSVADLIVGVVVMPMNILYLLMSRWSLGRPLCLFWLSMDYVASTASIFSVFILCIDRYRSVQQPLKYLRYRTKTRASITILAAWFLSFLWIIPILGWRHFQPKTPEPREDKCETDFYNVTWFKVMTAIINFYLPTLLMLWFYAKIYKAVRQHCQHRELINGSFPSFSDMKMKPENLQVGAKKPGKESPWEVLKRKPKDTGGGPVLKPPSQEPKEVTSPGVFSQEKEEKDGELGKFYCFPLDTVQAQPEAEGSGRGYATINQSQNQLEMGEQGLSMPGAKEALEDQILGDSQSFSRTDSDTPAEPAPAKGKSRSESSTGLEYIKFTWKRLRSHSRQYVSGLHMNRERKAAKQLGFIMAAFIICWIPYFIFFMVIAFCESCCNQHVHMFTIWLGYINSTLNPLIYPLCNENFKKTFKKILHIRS

Take `CC(C)(C)c1ccc(C(O)CCCN2CCC(C(O)(c3ccccc3)c3ccccc3)CC2)cc1` (racemic) [Terfenadine]: the “protection against histamine induced lethality” value in series [1] was “protects against histamine induced lethality in the guinea pig”. Also, in series [2], the absorption entry is listed as “well absorbed” and the metabolism entry was “extensively metabolized”. In addition, the “clinical efficacy in allergic rhinitis” value in series [3] is listed as “slightly less effective than chlorpheniramine”. Moreover, in series [4], the “increase in airway resistance caused by LTD4” value is “suppressed”. Further, the “adverse effects: cardiac arrhythmias” value in series [5] (administration to a human) was “cardiac arrhythmias, including ventricular tachyarrhythmias, torsades de pointes, and ventricular fibrillation”. Also, the “occurrence of cardiac arrhythmias” value in series [5] (coadministration with other drugs such as ketoconazole and erythromycin or upon overdose) is reported as “an increase in the occurrence of these cardiac arrhythmias”. Besides, the “sedation, gastrointestinal distress, dry mouth, and constipation or diarrhea” value in series [5] (in vivo) is “relatively less sedation, gastrointestinal distress, dry mouth, and constipation or diarrhea”.
Turning to `CC(C)(C(=O)O)c1ccc([C@H](O)CCCN2CCC(C(O)(c3ccccc3)c3ccccc3)CC2)cc1` [R-(+)-terfenadine carboxylate], in series [6], the inhibition at 0.001 µM came to 12.4%, the inhibition at 0.1 µM came to 45.2% and the inhibition at 10 µM came out at 87.3%.
Consider `CC(C)(C(=O)O)c1ccc([C@@H](O)CCCN2CCC(C(O)(c3ccccc3)c3ccccc3)CC2)cc1` [S-(-)-terfenadine carboxylate], for which, in series [6], the inhibition at 0.001 µM was found to be 8.1%, the inhibition at 0.1 µM came out at 54.1% and the inhibition at 10 µM came to 88.7%.
